Measurements published in US10112918B2, “15-oxospiramilactone derivatives, preparation method and uses thereof” (Kunming Institute of Botany, The Chinese Academy of Sciences, priority 2013, dated 2018).
Like-named read-outs stand apart in the source and are kept apart here.

What was measured:
Type in all cases: cell-based
[1] = test system: HL-60 (human promyelocytic leukemia cells); test: MTT inhibition of tumor cell growth, HL-60
Procedure: (§1) 1. Inoculating cells: the culture medium DMEM or RMPI1640 containing 10% fetal bovine serum was used to prepare a single cell suspension, and the cell suspension was inoculated to a 96-well plate at 5000-10000 cells per well (100 μl for each well); Adherent cells were inoculated and cultured for 12 h in advance. HL-60 (human promyelocytic leukemia cells), SMMC-7721 (human hepatoma cells), A-549 (Human lung adenocarcinoma cells), MCF-7 (human breast cancer cells), SW-480 (human colon cancer cells) were purchased from the Cell Bank of the Chinese Academy of Sciences, Shanghai.
(§2) 2. The solution of the compound to be tested (40 μM for primary screening; 5 concentrations were set for gradient re-screening for the compounds which achieve about 50% inhibition of tumor cell growth at 40 μM) was added, the final volume of each well was 200 μl, and triplicate wells were set for each test.
(§3) 3. Coloration: After culturing at 37° C. for 48 h, MTT solution (20 μl) was added to each well. After incubation for another 4 h, the culture was stopped. The supernatant in each well was pipetted and discarded, and 200 μl SDS solution (10%) was added to each well. Incubation was performed overnight (at 37° C.), to completely dissolve the crystal.
(§4) 4. Colorimetric assay: ELISA Reader (Bio-Rad 680) was used to obtain the light absorption for each well at a wavelength of 595 nm, the results were recorded. A cell growth curve was plotted with the concentration as abscissa and the cell survival percentage as ordinate. The two-point method (Reed and Muench method) was used to calculate the IC50 of the compound.

[2] = test system: SMMC-7721 (human hepatoma cells); test: MTT inhibition of tumor cell growth, SMMC-7721
Procedure: as §1, §2, §3, §4

[3] = test system: A-549 (Human lung adenocarcinoma cells); test: MTT inhibition of tumor cell growth, A-549
Procedure: as §1, §2, §3, §4

[4] = test system: MCF-7 (human breast cancer cells); test: MTT inhibition of tumor cell growth, MCF-7
Procedure: as §1, §2, §3, §4

[5] = test system: SW-480 (human colon cancer cells); test: MTT inhibition of tumor cell growth, SW-480
Procedure: as §1, §2, §3, §4

[6] = Homo sapiens, SW480, 48 h, Table 6, double Michael reaction acceptor derivatives, read-out: IC50 SW-480, derivatives having double Michael reaction acceptor
[7] = Homo sapiens, SW480, 48 h, Table 6, 7-hydroxyl derivatives and controls, read-out: IC50 SW-480, 7-hydroxyl derivatives
[8] = Homo sapiens, HL-60, 48 h, Table 7 (first), alkaloid derivatives
[9] = Homo sapiens, SMMC-7721, 48 h, Table 7 (first), alkaloid derivatives
[10] = Homo sapiens, A549, 48 h, Table 7 (first), alkaloid derivatives
[11] = Homo sapiens, MCF7, 48 h, Table 7 (first), alkaloid derivatives
[12] = Homo sapiens, SW480, 48 h, Table 7 (first), alkaloid derivatives, read-out: IC50 SW-480
[13] = Table 1, 7-hydroxy derivatives of S-3, 48 h
[14] = Table 2, derivatives having potential Michael reaction acceptor, 48 h
[15] = Table 3, single Michael reaction acceptor, modified lactonic ring, 48 h
[16] = Table 4, derivatives obtained by reduction of the lactonic ring, 48 h
[17] = Table 5, derivatives having double Michael reaction acceptor, 48 h
[18] = Table 7 (first), alkaloid derivatives, 48 h
[19] = Homo sapiens, SW480, 48 h, Table 6, 7-carbonyl derivatives, read-out: IC50 SW-480, 7-carbonyl derivatives

C=C1C(=O)[C@]23CC[C@H]1CC2[C@@]12CCC[C@@]4(C)CN(CCO)[C@@H]1O[C@@H]3CC42 (stereo partly drawn) [Compound 82]
IC50 ([1]; Homo sapiens, HL-60, Table 7 (first), alkaloid derivatives, 48 h): 19300 nM
IC50 ([2]; Homo sapiens, SMMC-7721, Table 7 (first), alkaloid derivatives, 48 h): 23600 nM
IC50 ([3]; Homo sapiens, A549, Table 7 (first), alkaloid derivatives, 48 h): 18600 nM
IC50 ([4]; Homo sapiens, MCF7, Table 7 (first), alkaloid derivatives, 48 h): 10400 nM
IC50 ([5]; Homo sapiens, SW480, Table 7 (first), alkaloid derivatives, 48 h, read-out: IC50 SW-480): 14000 nM

C=C1C(=O)C23CC[C@@H](CC2[C@]2(COC(=O)CC)CCC[C@@](C)(COC(=O)CC)C12)C(=C)C3=O (stereo partly drawn) [Compound 74c]
IC50 [5, 6]: 330 nM

C=C1C(=O)C23CC[C@H]1CC2[C@]1(COC(C)=O)CCC[C@@](C)(COC(=O)c2cccs2)C1C[C@H]3O (stereo partly drawn) [Compound 70]
IC50 [5, 7]: 1690 nM

CC(=O)O[C@H]1C(=O)[C@@]2(C)[C@H]([C@H](OC(=O)c3ccccc3)[C@]3(O)C[C@H](OC(=O)[C@H](O)[C@@H](NC(=O)c4ccccc4)c4ccccc4)C(C)=C1C3(C)C)[C@]1(OC(C)=O)CO[C@@H]1C[C@@H]2O [TAXOL, reference compound]
IC50 ([1]; Homo sapiens, HL-60, 48 h, Table 1, 7-hydroxy derivatives of S-3): < 8 nM
IC50 ([1]; Homo sapiens, HL-60, 48 h, Table 2, derivatives having potential Michael reaction acceptor): < 8 nM
IC50 ([1]; Homo sapiens, HL-60, 48 h, Table 3, single Michael reaction acceptor, modified lactonic ring): < 8 nM
IC50 ([1]; Homo sapiens, HL-60, 48 h, Table 4, derivatives obtained by reduction of the lactonic ring): < 8 nM
IC50 ([1]; Homo sapiens, HL-60, 48 h, Table 5, derivatives having double Michael reaction acceptor): < 8 nM
IC50 [1, 8]: < 8 nM
IC50 ([2]; Homo sapiens, SMMC-7721, 48 h, Table 1, 7-hydroxy derivatives of S-3): < 8 nM
IC50 ([2]; Homo sapiens, SMMC-7721, 48 h, Table 2, derivatives having potential Michael reaction acceptor): < 8 nM
IC50 ([2]; Homo sapiens, SMMC-7721, 48 h, Table 3, single Michael reaction acceptor, modified lactonic ring): < 8 nM
IC50 ([2]; Homo sapiens, SMMC-7721, 48 h, Table 4, derivatives obtained by reduction of the lactonic ring): < 8 nM
IC50 ([2]; Homo sapiens, SMMC-7721, 48 h, Table 5, derivatives having double Michael reaction acceptor): < 8 nM
IC50 [2, 9]: < 8 nM
IC50 ([3]; Homo sapiens, A549, 48 h, Table 1, 7-hydroxy derivatives of S-3): < 8 nM
IC50 ([3]; Homo sapiens, A549, 48 h, Table 2, derivatives having potential Michael reaction acceptor): < 8 nM
IC50 ([3]; Homo sapiens, A549, 48 h, Table 3, single Michael reaction acceptor, modified lactonic ring): < 8 nM
IC50 ([3]; Homo sapiens, A549, 48 h, Table 4, derivatives obtained by reduction of the lactonic ring): < 8 nM
IC50 ([3]; Homo sapiens, A549, 48 h, Table 5, derivatives having double Michael reaction acceptor): < 8 nM
IC50 [3, 10]: < 8 nM
IC50 ([4]; Homo sapiens, MCF7, 48 h, Table 1, 7-hydroxy derivatives of S-3): < 8 nM
IC50 ([4]; Homo sapiens, MCF7, 48 h, Table 2, derivatives having potential Michael reaction acceptor): < 8 nM
IC50 ([4]; Homo sapiens, MCF7, 48 h, Table 3, single Michael reaction acceptor, modified lactonic ring): < 8 nM
IC50 ([4]; Homo sapiens, MCF7, 48 h, Table 4, derivatives obtained by reduction of the lactonic ring): < 8 nM
IC50 ([4]; Homo sapiens, MCF7, 48 h, Table 5, derivatives having double Michael reaction acceptor): < 8 nM
IC50 [4, 11]: < 8 nM
IC50 ([5]; Homo sapiens, SW480, 48 h, Table 1, 7-hydroxy derivatives of S-3, read-out: IC50 SW-480): < 8 nM
IC50 ([5]; Homo sapiens, SW480, 48 h, Table 2, derivatives having potential Michael reaction acceptor, read-out: IC50 SW-480): < 8 nM
IC50 ([5]; Homo sapiens, SW480, 48 h, Table 3, single Michael reaction acceptor, modified lactonic ring, read-out: IC50 SW-480): < 8 nM
IC50 ([5]; Homo sapiens, SW480, 48 h, Table 4, derivatives obtained by reduction of the lactonic ring, read-out: IC50 SW-480): < 8 nM
IC50 ([5]; Homo sapiens, SW480, 48 h, Table 5, derivatives having double Michael reaction acceptor, read-out: IC50 SW-480): < 8 nM
IC50 [5, 7]: < 8 nM
IC50 [5, 12]: < 8 nM

C=C1C(=O)[C@@]23CC[C@@H](CC2[C@@]24CCC[C@@](C)(CN(CCO[Si](C)(C)C(C)(C)C)C2)C14)C(=C)C3=O (stereo partly drawn) [Compound 92]
IC50 [1, 8]: 1390 nM
IC50 [2, 9]: 2630 nM
IC50 [3, 10]: 1550 nM
IC50 [4, 11]: 2900 nM
IC50 [5, 12]: 2780 nM

[NH2][Pt]([NH2])([Cl])[Cl] [cis-DDP, reference compound]
IC50 [1, 13]: 1810 nM
IC50 [1, 14]: 1810 nM
IC50 [1, 15]: 1810 nM
IC50 [1, 16]: 1810 nM
IC50 [1, 17]: 1810 nM
IC50 [1, 18]: 3080 nM
IC50 [2, 13]: 8860 nM
IC50 [2, 14]: 8860 nM
IC50 [2, 15]: 8860 nM
IC50 [2, 16]: 8860 nM
IC50 [2, 17]: 8860 nM
IC50 [2, 18]: 10200 nM
IC50 [3, 13]: 11700 nM
IC50 [3, 14]: 11700 nM
IC50 [3, 15]: 11700 nM
IC50 [3, 16]: 11700 nM
IC50 [3, 17]: 11700 nM
IC50 [3, 18]: 9080 nM
IC50 [4, 13]: 15900 nM
IC50 [4, 14]: 15900 nM
IC50 [4, 15]: 15900 nM
IC50 [4, 16]: 15900 nM
IC50 [4, 17]: 15900 nM
IC50 [4, 18]: 17500 nM
IC50 ([5]; Table 1, 7-hydroxy derivatives of S-3, 48 h, read-out: IC50 SW-480): 16600 nM
IC50 ([5]; Table 2, derivatives having potential Michael reaction acceptor, 48 h, read-out: IC50 SW-480): 16600 nM
IC50 ([5]; Table 3, single Michael reaction acceptor, modified lactonic ring, 48 h, read-out: IC50 SW-480): 16600 nM
IC50 ([5]; Table 4, derivatives obtained by reduction of the lactonic ring, 48 h, read-out: IC50 SW-480): 16600 nM
IC50 ([5]; Table 5, derivatives having double Michael reaction acceptor, 48 h, read-out: IC50 SW-480): 16600 nM
IC50 ([5]; Table 6, 7-hydroxyl derivatives and controls, 48 h, read-out: IC50 SW-480, 7-hydroxyl derivatives): 11100 nM
IC50 ([5]; Table 7 (first), alkaloid derivatives, 48 h, read-out: IC50 SW-480): 12000 nM

C=C1C(=O)C23CC[C@H]1CC2[C@]1(COC(=O)CC)CCC[C@@](C)(COC(=O)CC)C1C[C@H]3O (stereo partly drawn) [Compound 72c]
IC50 [5, 7]: 810 nM

C=C1C(=O)C23CC[C@@H](CC2[C@]2(COC(=O)c4ccccc4)CCC[C@@](C)(COC(=O)c4ccccc4)C12)C(=C)C3=O (stereo partly drawn) [Compound 74d]
IC50 [5, 6]: 150 nM

C=C1C(=O)C23CC[C@H]1CC2[C@]1(COC(=O)c2ccccc2)CCC[C@@](C)(COC(=O)c2ccccc2)C1C[C@H]3O (stereo partly drawn) [Compound 72d]
IC50 [5, 7]: 520 nM

C=C1C(=O)C23CC[C@H]1CC2[C@]1(COC(=O)c2cccs2)CCC[C@@](C)(COC(=O)c2cccs2)C1C[C@H]3O (stereo partly drawn) [Compound 63]
IC50 [5, 7]: 2970 nM

C=C1C(=O)C23CC[C@H]1CC2[C@]1(COC(=O)CC)CCC[C@@](C)(COC(=O)CC)C1CC3=O (stereo partly drawn) [Compound 73c]
IC50 [5, 19]: 690 nM

C=C1C(=O)C23CC[C@H]1CC2[C@@]12CCC[C@@](C)(COS(=O)OC1)C2CC3=O (stereo partly drawn) [Compound 42]
IC50 [5, 19]: 1830 nM

C=C1C(=O)C23CC[C@H]1CC2[C@]1(COC(=O)c2ccccc2)CCC[C@@](C)(COC(=O)c2ccccc2)C1CC3=O (stereo partly drawn) [Compound 73d]
IC50 [5, 19]: 620 nM
